The source of these data is US8324225B2, “Pyrrolopyrimidine compounds and their uses” (Novartis AG, priority 2006, dated 2012).

Common to all, as to format: biochemical
The target of assay [1] is CDK4/Cyclin-D1 kinase complex (Homo sapiens, UniProt P11802). In words: CDK4 ELISA based assay, Rb phosphorylation at Serine780. As to conditions: Table C. The source says: The compounds that inhibit the CDK4 kinase activity would inhibit the signal output of the assay.
A general note: In an ELISA, binding on a coated surface is turned into a signal by an enzyme label.

For assay [2], the target named is CDK2/Cyclin-A kinase complex (Homo sapiens, UniProt P24941). In words: CDK2 IMAP fluorescence polarization assay. To be noted: Table C; read-out: CDK2 IC50. The source says:
In order to test the CDK2 activity of the compounds of the invention, the CDK2 assay is a fluorescence polarization assay, where the enzyme is a purified active CDK2/Cyclin-A kinase complex and the substrate is a synthesized peptide derived from Histone H1. This assay utilizes the IMAP technology from Molecular Devices. The active CDK2/Cyclin-A complex phosphorylates the peptide substrate, which is conjugated with the TAMRA tag. The phosphorylated site is then recognized by a metal containing molecule that interacts with the TAMRA tag to induce a high fluorescence polarization. The compounds that inhibit the CDK2 kinase activity would inhibit the fluorescence output of the assay.
For orientation: Fluorescence polarisation rises when a labelled molecule tumbles more slowly, as on binding a larger partner.

Assay [3] concerns the target CDK4 (Homo sapiens, UniProt P11802). In words: CDK4 HTRF. As to conditions: Table E; read-out: CDK4 HTRF/IC50 [umol l − 1].

Sequence of CDK4 (P11802 whole entry): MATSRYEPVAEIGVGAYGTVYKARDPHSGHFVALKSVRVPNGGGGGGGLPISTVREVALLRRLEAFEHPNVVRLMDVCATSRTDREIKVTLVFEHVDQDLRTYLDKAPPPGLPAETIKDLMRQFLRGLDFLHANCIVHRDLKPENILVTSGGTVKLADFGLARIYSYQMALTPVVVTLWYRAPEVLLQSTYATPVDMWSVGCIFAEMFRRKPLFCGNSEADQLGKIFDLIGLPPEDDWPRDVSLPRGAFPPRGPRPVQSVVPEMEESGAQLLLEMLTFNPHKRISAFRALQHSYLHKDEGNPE
Sequence of CDK4 (P24385 whole entry partner): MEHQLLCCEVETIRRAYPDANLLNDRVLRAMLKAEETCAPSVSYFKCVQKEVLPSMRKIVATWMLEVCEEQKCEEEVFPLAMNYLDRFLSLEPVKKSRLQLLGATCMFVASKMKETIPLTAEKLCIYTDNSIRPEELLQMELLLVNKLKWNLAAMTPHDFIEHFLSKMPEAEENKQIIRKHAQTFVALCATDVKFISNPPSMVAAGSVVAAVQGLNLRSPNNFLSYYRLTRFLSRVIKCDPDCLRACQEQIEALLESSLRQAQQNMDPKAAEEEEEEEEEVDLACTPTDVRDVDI
Sequence of CDK4/Cyclin-D1 kinase complex (P11802 whole entry): as the sequence (P11802 whole entry) above
Sequence of CDK4/Cyclin-D1 kinase complex (P24385 whole entry partner): as the sequence (P24385 whole entry partner) above

As for `CC(=O)N1CCN(c2ccc(Nc3ncc4c(C)cn(C5CCCC5)c4n3)cc2)CC1`, the IC50 in assay [1] and in assay [2] was < 10 µM each time.

As for `Cc1cn(C2CCCC2)c2nc(Nc3ccc(N4CCNCC4)cc3)ncc12`, in assay [2], the IC50 is < 10 µM.

`Cc1cn(C2CCCC2)c2nc(Nc3ccc(N4CCNCC4)cn3)ncc12`: the values for the IC50 in assay [1] and in assay [2] were < 10 µM and > 10 µM, respectively.

With `Cc1cn(C2CCCC2)c2nc(Nc3ccc(N4CCN(C)CC4)cc3)ncc12`, the IC50 in assay [1] is < 10 µM; in assay [2] it was > 10 µM.

As to `CC(C)(C)OC(=O)N1CCN(c2ccc(Nc3ncc4ccn(C5CCCC5)c4n3)nc2)CC1`, in assay [1], the IC50 was > 10 µM.

Consider `c1cc(Nc2ncc3ccn(C4CCCC4)c3n2)ncc1N1CCNCC1`, for which the IC50 in assay [1] was > 10 µM.

On to `CC(=O)N1CCN(c2ccc(Nc3ncc4ccn(C5CCCC5)c4n3)nc2)CC1`, for which, in assay [1], the IC50 was > 10 µM.

Turning to `CN1CCN(c2ccc(Nc3ncc4ccn(C5CCCC5)c4n3)cc2)CC1`, in assay [1], the IC50 is < 10 µM.

With `CC(=O)N1CCN(c2ccc(Nc3ncc4ccn(C5CCCC5)c4n3)cc2)CC1`, in assay [1], the IC50 was > 10 µM.

For `Cc1cn(C2CC2)c2nc(Nc3ccc(N4CCNCC4)cc3)ncc12`, the IC50 in assay [1] is < 10 µM.

Consider `c1cc(N2CCNCC2)ccc1Nc1ncc2ccn(C3CCCC3)c2n1`, for which the IC50 in assay [1] was < 10 µM.

As for `Cc1cn(C2CCCCC2)c2nc(Nc3ccc(N4CCNCC4)cn3)ncc12`, the IC50 in assay [1] was < 10 µM.

In the case of `Cc1cn(C2CC2)c2nc(Nc3ccc(N4CCNCC4)cn3)ncc12`, in assay [1], the IC50 is < 10 µM.

As for `CCC(C(=O)OC)n1ccc2cnc(Nc3ccc(N4CCN(C(C)=O)CC4)cc3)nc21` (centres unmarked) [Example 219], the IC50 in assay [3] is < 10 µM.

In the case of `CCC(C(=O)OC)n1ccc2cnc(Nc3ccc(N4CCNCC4)cc3)nc21` (centres unmarked) [Example 221], in assay [3], the IC50 was < 10 µM.

On to `CCC(C)n1ccc2cnc(Nc3ccc(N4CCN(C(C)=O)CC4)cc3)nc21` (centres unmarked) [Example 222], for which, in assay [3], the IC50 was < 10 µM.

With `CCOC(=O)C(C(C)C)n1ccc2cnc(Nc3ccc(N4CCN(C(C)=O)CC4)cc3)nc21` (centres unmarked) [Example 223], the IC50 in assay [3] was < 10 µM.

On to `CC(=O)N1CCN(c2ccc(Nc3ncc4ccn(C5CCCCC5=O)c4n3)cc2)CC1` (centres unmarked) [Example 226], for which the IC50 in assay [3] was < 10 µM.

As to `CCC(C(N)=O)n1ccc2cnc(Nc3ccc(N4CCN(C(C)=O)CC4)cc3)nc21` (centres unmarked) [Example 227], the IC50 in assay [3] was < 10 µM.

With `CC(=O)N1CCN(c2ccc(Nc3ncc4ccn(C5CCOCC5)c4n3)cc2)CC1` [Example 228], in assay [3], the IC50 was < 10 µM.

Take `CC(=O)N1CCN(c2ccc(Nc3ncc4ccn(C(C)CN(C)C)c4n3)cc2)CC1` (centres unmarked) [Example 229]: the IC50 in assay [3] is < 10 µM.

Turning to `CCC(C(N)=O)n1ccc2cnc(Nc3ccc(N4CCNCC4)cc3)nc21` (centres unmarked) [Example 234], in assay [3], the IC50 was < 10 µM.

`c1cc(N2CCNCC2)ccc1Nc1ncc2ccn(C3CCOCC3)c2n1` [Example 235]: the IC50 in assay [3] is < 10 µM.

As to `CC(=O)N1CCN(c2ccc(Nc3ncc4ccn(C5CCC(C)CC5)c4n3)cc2)CC1` (centres unmarked) [Example 236], in assay [3], the IC50 was < 10 µM.

With `CCC(=O)N1CCN(c2ccc(Nc3ncc4ccn(C(CC)CC)c4n3)cc2)CC1` [Example 237], in assay [3], the IC50 was < 10 µM.

In the case of `CC(=O)N1CCN(c2ccc(Nc3ncc4ccn(C5CCCC(C)C5)c4n3)cc2)CC1` (centres unmarked) [Example 241], in assay [3], the IC50 is < 10 µM.

Turning to `CN(C)CC1CCC(n2ccc3cnc(Nc4ccc(N5CCNCC5)cc4)nc32)C1` (centres unmarked) [Example 249], the IC50 in assay [3] is < 10 µM.

In the case of `CN1CCN(c2ccc(Nc3ncc4ccn(C5CCCC5)c4n3)nc2)CC1` [Example 255], the IC50 in assay [3] was < 10 µM.

With `Cc1cn(C2CCCC2)c2nc(Nc3ccc(N4CCCCC4)cc3)ncc12` [Example 278], in assay [3], the IC50 is < 10 µM.

In the case of `Cc1cn(C2CCCC2)c2nc(Nc3ccc4[nH]ncc4c3)ncc12` [Example 281], the IC50 in assay [3] was < 10 µM.

Regarding `Cc1cn(C2CCCC2)c2nc(Nc3ccc(N4CCNCC4)nc3)ncc12` [Example 283], the IC50 in assay [3] was < 10 µM.

With `Cc1cn(C2CCCC2)c2nc(Nc3ccc(N4CCNCC4)c(F)c3)ncc12` [Example 285], the IC50 in assay [3] was < 10 µM.

As for `Cc1cn(C2CCCC2)c2nc(Nc3ccc(N4CCN(S(C)(=O)=O)CC4)cc3)ncc12` [Example 286], the IC50 in assay [3] is < 10 µM.

On to `Cc1cn(C2CCCC2)c2nc(Nc3ccc(S(N)(=O)=O)cc3)ncc12` [Example 288], for which the IC50 in assay [3] is < 10 µM.

Take `Cc1cn(C2CCCC2)c2nc(Nc3ccc(C(=O)N4CCOCC4)cc3)ncc12` [Example 292]: the IC50 in assay [3] was < 10 µM.

In the case of `Cc1cn(C2CCCC2)c2nc(Nc3ccncc3)ncc12` [Example 298], the IC50 in assay [3] is < 10 µM.

With `Cc1cn(C2CCCC2)c2nc(Nc3cccnc3)ncc12` [Example 300], the IC50 in assay [3] is < 10 µM.

For `Cc1cn(C2CCCC2)c2nc(Nc3ccc(N4CCOCC4)cn3)ncc12` [Example 302], the IC50 in assay [3] was < 10 µM.

Turning to `Cc1cn(C2CCCC2)c2nc(Nc3ccc(N(C)C)cc3)ncc12` [Example 311], the IC50 in assay [3] is < 10 µM.

For the molecule `Cc1cn(C2CCCC2)c2nc(Nc3ccc(-n4ccnc4)cc3)ncc12` [Example 312], the IC50 in assay [3] is < 10 µM.

For `Cc1cn(-c2ccccn2)c2nc(Nc3ccc(N4CCNCC4)cn3)ncc12` [Example 320, (5-Methyl-7-pyridin-2-yl-7H-pyrrolo[2,3-d]pyrimidin-2-yl)-(5-piperazin-1-yl-pyridin-2-yl)-amine], the IC50 in assay [3] is < 10 µM.

As to `Cc1cn(-c2nccs2)c2nc(Nc3ccc(N4CCNCC4)cn3)ncc12` [Example 321], the IC50 in assay [3] is < 10 µM.

In the case of `Cc1cn(-c2cccnc2)c2nc(Nc3ccc(N4CCNCC4)cc3)ncc12` [Example 322], the IC50 in assay [3] is < 10 µM.

`CCCCNC(=O)c1cc2cnc(Nc3ccc(N4CCNCC4)cc3)nc2n1C(CC)CC` [Example 336]: the IC50 in assay [3] was < 10 µM.

With `CCC(CC)n1c(C(=O)N2CCCC2)cc2cnc(Nc3ccc(N4CCNCC4)cc3)nc21` [Example 337], the IC50 in assay [3] was < 10 µM.

In the case of `CCC(CC)n1c(C(=O)N2CCOCC2)cc2cnc(Nc3ccc(N4CCNCC4)cc3)nc21` [Example 343], in assay [3], the IC50 was < 10 µM.

As for `CCC(CC)n1c(C(=O)NC2CCCC2)cc2cnc(Nc3ccc(N4CCNCC4)cc3)nc21` [Example 344], the IC50 in assay [3] is < 10 µM.

`CCC(CC)n1c(C(=O)Nc2ccc(C(C)(C)C)cc2)cc2cnc(Nc3ccc(N4CCNCC4)cc3)nc21` [Example 349]: the IC50 in assay [3] was < 10 µM.

`CCC(CC)n1c(C(=O)Nc2ccc(CN3CCN(C)CC3)cc2)cc2cnc(Nc3ccc(N4CCNCC4)cc3)nc21` [Example 354]: in assay [3], the IC50 was < 10 µM.

In the case of `CCC(CC)n1c(CNC(C)C)cc2cnc(Nc3ccc(N4CCN(C(C)=O)CC4)cc3)nc21` [Example 366], in assay [3], the IC50 was < 10 µM.

For the molecule `CCC(CC)n1c(CNC(C)C)cc2cnc(Nc3ccc(N4CCNCC4)cc3)nc21` [Example 367], the IC50 in assay [3] is < 10 µM.

As for `CCC(CC)n1c(CNc2cccnc2)cc2cnc(Nc3ccc(N4CCN(C(C)=O)CC4)cc3)nc21` [Example 369], the IC50 in assay [3] is < 10 µM.

`CCC(CC)n1c(CNC2CCCC2)cc2cnc(Nc3ccc(N4CCN(C(C)=O)CC4)cc3)nc21` [Example 370]: the IC50 in assay [3] was < 10 µM.

Take `CCC(CC)n1c(CNc2ccon2)cc2cnc(Nc3ccc(N4CCN(C(C)=O)CC4)cc3)nc21` [Example 371]: the IC50 in assay [3] is < 10 µM.

Regarding `CCC(CC)n1c(CNc2cc(C)[nH]n2)cc2cnc(Nc3ccc(N4CCN(C(C)=O)CC4)cc3)nc21` [Example 372], the IC50 in assay [3] was < 10 µM.

As to `CCC(CC)n1c(C(=O)OC)cc2cnc(Nc3ccc(N4CCN(C(C)=O)CC4)cc3)nc21` [Example 373, 2-[4-(4-Acetyl-piperazin-1-yl)-phenylamino]-7-(1-ethyl-propyl)-7H-pyrrolo[2,3-d]pyrimidine-6-carboxylic acid methyl ester], the IC50 in assay [3] is < 10 µM.

In the case of `CCC(CC)n1c(COC)cc2cnc(Nc3ccc(N4CCN(C(C)=O)CC4)cc3)nc21` [Example 379], the IC50 in assay [3] is < 10 µM.

On to `CCC(CC)n1c(COC)cc2cnc(Nc3ccc(C(=O)NC4CCCC4)cc3)nc21` [Example 380], for which the IC50 in assay [3] was < 10 µM.

Consider `CC(=O)c1c(C)c2cnc(Nc3ccc(N4CCNCC4)cn3)nc2n1C1CCOCC1` [Example 388], for which the IC50 in assay [3] is < 10 µM.

For `Cc1c(C(=O)N(C)C)n(C2CCCC2)c2nc(Nc3ccc(N4CCNCC4)cn3)ncc12` [Example 392], the IC50 in assay [3] was < 10 µM.

Turning to `Cc1cc(-c2c(C)c3cnc(Nc4ccc(N5CCNCC5)cn4)nc3n2C2CCCC2)on1` [Example 405], in assay [3], the IC50 is < 10 µM.

In the case of `Cc1cn(-c2ccccc2)c2nc(Nc3ccc(N4CCNCC4)cc3)ncc12` [Example 437], the IC50 in assay [3] is < 10 µM.

Turning to `CCc1cn(C2CCCC2)c2nc(Nc3ccc(N4CCNCC4)cc3)ncc12` [Example 438], in assay [3], the IC50 is < 10 µM.

With `CC(C)c1cn(C2CCCC2)c2nc(Nc3ccc(N4CCNCC4)cn3)ncc12` [Example 440], in assay [3], the IC50 is < 10 µM.

As to `CCC(CC)n1c(CNCc2ccco2)cc2cnc(Nc3ccc(N4CCN(C(C)=O)CC4)cc3)nc21` [Example 449], the IC50 in assay [3] is < 10 µM.

For the molecule `Cc1cn(C2CCCC2)c2nc(Nc3ccc(CN4CCN(C(=O)OC(C)(C)C)CC4)cc3)ncc12` [Example 462], the IC50 in assay [3] was < 10 µM.

For the molecule `Cc1cn(C2CCCC2)c2nc(Nc3ccc(CO)cc3)ncc12` [Example 466], in assay [3], the IC50 is < 10 µM.

In the case of `CN(C)C(=O)c1cc2cnc(NCc3ccc(N4CCNCC4)cc3)nc2n1C1CCCC1` [Example 467], the IC50 in assay [3] was < 10 µM.
